Values quoted from earlier work as cited in US9687466B2, “Use of dianhydrogalactitol and analogs and derivatives thereof to treat glioblastoma multiforme” (DELMAR PHARMACEUTICALS, INC., priority 0212, dated 2017).

Details: cited from earlier work

O[C@H]([C@H](O)[C@@H](O)CBr)[C@H](O)CBr [dibromodulcitol]
absorption by the oral route: rapid and fairly complete
